Legend:
[1] = test system: Boophilus microplus, Biarra strain (resistant); assay: In-vitro test for ovicidal effect on ticks (Biarra strain)
Description: In-vitro Test for Ovicidal Effect on Ticks
The emulsion concentrate so obtained is diluted with water to the application concentration desired in each case.
After immersion of, in each case, 10 female specimens of the various strains of ticks, the individual ticks are transferred to plastic dishes, the bottom of each of which is covered with a disc of filter paper.

Boophilus, Biarra strain = assay: In-vitro test for ovicidal and adulticidal effect on ticks; design: species or system Boophilus microplus
Description: In-vitro test for ovicidal and adulticidal effect on ticks
The ovicidal effect is determined as stated in Example 1.
In addition, the adulticidal effectiveness of the preparation of the given active compound after 24 hours is determined by ascertaining the voluntary movement of limbs and bodies of the immersed adult ticks after stimulation with a fine needle compared with the voluntary movement of limbs and bodies of the untreated adult ticks. The effectiveness is stated in %, 100% meaning that no movements of any kind of the limbs and bodies were any longer detectable, and 0% signifying that the ticks moved limbs and bodies in normal manner.
The results below were obtained in a similar manner to those in accordance with Example 4.

[2] = Table 2, concentration giving 100% inhibition
[3] = Table 2, concentration giving >50% inhibition
[4] = Table 5, concentration giving 50% inhibition
[5] = Table 5, concentration giving 100% inhibition
[6] = Table 1b, concentration giving 100% inhibition
[7] = Table 1b, concentration giving >50% inhibition
[8] = Table 4, concentration giving 50% inhibition
[9] = Table 4, concentration giving 100% inhibition

| SMILES | Ovicidal effect: 100% inhibition with the stated concentration of active compound [1, 2] | Ovicidal effect: >50% inhibition with the stated concentration of active compound [1, 3] | Ovicidal effect: 100% inhibition with the stated concentration of active compound [1, 6] | Ovicidal effect: >50% inhibition with the stated concentration of active compound [1, 7] | other results |
| --- | --- | --- | --- | --- | --- |
| C=CCN1CCCC1=Nc1ccc(Cl)cc1Br [Compound 451] | 0.1 % by weight | 0.01 % by weight |  |  |  |
| C=CCCN1CCCC1=Nc1ccc(Cl)cc1C |  |  |  |  | Adulticidal and ovicidal effect: 50% inhibition with the stated concentration of active compound (Boophilus, Biarra strain; [4]): 0.008 % by weight; Adulticidal and ovicidal effect: 100% inhibition with the stated concentration of active compound (Boophilus, Biarra strain; [5]): 0.01 % by weight |
| CCN1CCCC1=Nc1cc(Cl)c(Cl)cc1Cl [Compound 31] |  |  | 0.3 % by weight | 0.1 % by weight |  |
| CCCN1CCCC1=Nc1ccc(Cl)c(Br)c1 |  |  |  |  | Adulticidal and ovicidal effect: 50% inhibition with the stated concentration of active compound (Boophilus, Biarra strain; [8]): 0.1 % by weight; Adulticidal and ovicidal effect: 100% inhibition with the stated concentration of active compound (Boophilus, Biarra strain; [9]): 0.3 % by weight |
| C=CCN1CCCC1=Nc1ccc(Cl)c(C)c1 |  |  |  |  | Adulticidal and ovicidal effect: 50% inhibition with the stated concentration of active compound (Boophilus, Biarra strain; [8]): 0.02 % by weight; Adulticidal and ovicidal effect: 100% inhibition with the stated concentration of active compound (Boophilus, Biarra strain; [9]): 0.03 % by weight |
| CC=CCN1CCCC1=Nc1ccc(Cl)c(C)c1 |  |  |  |  | Adulticidal and ovicidal effect: 50% inhibition with the stated concentration of active compound (Boophilus, Biarra strain; [4]): 0.02 % by weight; Adulticidal and ovicidal effect: 100% inhibition with the stated concentration of active compound (Boophilus, Biarra strain; [5]): 0.03 % by weight |
| CN1CCCC1=Nc1ccc(Br)cc1Cl [Compound 301] | 0.1 % by weight | 0.05 % by weight |  |  |  |
| CCCCN1CCCC1=Nc1ccc(Br)cc1C [Compound 461] | 0.3 % by weight | 0.2 % by weight |  |  |  |
| CC1CCC(=Nc2ccc(Cl)c(Cl)c2)N1C (stereo not shown) [Compound 201] |  |  | 0.3 % by weight | 0.1 % by weight |  |
| C=CCN1CCCC1=Nc1ccc(Cl)c(Br)c1 |  |  |  |  | Adulticidal and ovicidal effect: 50% inhibition with the stated concentration of active compound (Boophilus, Biarra strain; [8]): 0.05 % by weight; Adulticidal and ovicidal effect: 100% inhibition with the stated concentration of active compound (Boophilus, Biarra strain; [9]): 0.1 % by weight |
| CC(C)N1CCCC1=Nc1ccc(Cl)c(Cl)c1 [Compound 121] |  |  | 0.1 % by weight | 0.03 % by weight |  |
| CC(C)CN1CCCC1=Nc1ccc(Cl)c(Cl)c1 [Compound 111] |  |  | 0.1 % by weight | 0.03 % by weight |  |
| CCN1C(=Nc2ccc(Cl)c(Cl)c2)CCC1C (stereo not shown) [Compound 51] |  |  | 0.1 % by weight | 0.03 % by weight |  |
| CCCN1CCCC1=Nc1ccc(Br)cc1Br [Compound 271] | 0.3 % by weight | 0.2 % by weight |  |  |  |
| CCN1CCCC1=Nc1ccc(Br)cc1Br [Compound 261] | 0.1 % by weight | 0.05 % by weight |  |  |  |
| CCCN1CCCC1=Nc1ccc(Cl)c(Cl)c1 [Compound 61] |  |  | 0.03 % by weight | 0.01 % by weight |  |
| CCCCN1CCCC1=Nc1ccc(Cl)cc1C [Compound 151] |  |  | 0.3 % by weight | 0.1 % by weight |  |
| CC(C)(C)N1CCCC1=Nc1ccc(Cl)cc1Cl [Compound 181] |  |  | 0.3 % by weight | 0.1 % by weight |  |
| CN1CCCC1=Nc1ccc(Cl)cc1Br [Compound 341] | 0.1 % by weight | 0.03 % by weight |  |  |  |
| CCCN1CCCC1=Nc1ccc(Br)cc1Cl [Compound 321] | 0.3 % by weight | 0.1 % by weight |  |  |  |
| C=CCN1CCCC1=Nc1ccc(Br)cc1Br [Compound 281] | 0.1 % by weight | 0.03 % by weight |  |  |  |
| CCN1CCCC1=Nc1ccc(Cl)cc1Cl [Compound 21] |  |  | 0.1 % by weight | 0.01 % by weight |  |
| CCCN1CCCC1=Nc1ccc(Cl)cc1Cl [Compound 91] |  |  | 0.03 % by weight | 0.01 % by weight |  |
| CCN1CCCC1=Nc1ccc(Br)cc1Cl [Compound 311] | 0.1 % by weight | 0.08 % by weight |  |  |  |

| SMILES | Ovicidal effect: 100% inhibition with the stated concentration of active compound [1, 2] | Ovicidal effect: >50% inhibition with the stated concentration of active compound [1, 3] | Ovicidal effect: 100% inhibition with the stated concentration of active compound [1, 6] | Ovicidal effect: >50% inhibition with the stated concentration of active compound [1, 7] | other results |
| --- | --- | --- | --- | --- | --- |
| CN1CCCC1=Nc1ccc(Br)cc1Br [Compound 251] | 0.1 % by weight | 0.03 % by weight |  |  |  |
| CCCCN1CCCC1=Nc1ccc(Br)c(Cl)c1 [Compound 421] | 0.3 % by weight | 0.2 % by weight |  |  |  |
| CN1CCCC1=Nc1cc(Cl)c(Cl)cc1Cl [Compound 131] |  |  | 0.03 % by weight | 0.01 % by weight |  |
| Cc1cc(Cl)ccc1N=C1CCCN1C(C)(C)C [Compound 231] |  |  | 0.3 % by weight | 0.1 % by weight |  |
| CCN1CCCC1=Nc1ccc(Cl)cc1Br [Compound 351] | 0.1 % by weight | 0.03 % by weight |  |  |  |
| CCCN1CCCC1=Nc1ccc(F)cc1Br [Compound 391] | 0.03 % by weight | 0.02 % by weight |  |  |  |
| CCCCN1CCCC1=Nc1ccc(Br)cc1Cl [Compound 331] | 0.3 % by weight | 0.1 % by weight |  |  |  |
| CCCCN1CCCC1=Nc1ccc(Cl)cc1Cl [Compound 161] |  |  | 0.03 % by weight | 0.01 % by weight |  |
| CN1CCCC1=Nc1ccc(F)cc1Br [Compound 381] | 0.3 % by weight | 0.1 % by weight |  |  |  |
| CC(C)CN1CCCC1=Nc1ccc(Cl)cc1Cl [Compound 171] |  |  | 0.1 % by weight | 0.03 % by weight |  |
| CCCN1CCCC1=Nc1ccc(Cl)cc1Br [Compound 361] | 0.1 % by weight | 0.03 % by weight |  |  |  |
| Cc1cc(Cl)ccc1N=C1CCCN1CC(C)C [Compound 101] |  |  | 0.1 % by weight | 0.05 % by weight |  |
| C=CCN1CCCC1=Nc1ccc(Br)cc1C [Compound 431] | 0.1 % by weight | 0.03 % by weight |  |  |  |
| CC(C)N1CCCC1=Nc1ccc(Cl)cc1Cl [Compound 221] |  |  | 0.1 % by weight | 0.03 % by weight |  |
| CN1CCCC1=Nc1ccc(Cl)c(Cl)c1 [Compound 191] |  |  | 0.3 % by weight | 0.1 % by weight |  |
| CCN1CCCC1=Nc1ccc(Cl)c(Cl)c1 [Compound 81] |  |  | 0.3 % by weight | 0.1 % by weight |  |
| CCCCN1CCCC1=Nc1ccc(Cl)cc1Br [Compound 371] | 0.03 % by weight | 0.01 % by weight |  |  |  |
| CCN1CCCC1=Nc1ccc(Br)c(Cl)c1 [Compound 401] | 0.1 % by weight | 0.08 % by weight |  |  |  |
| C=CCN1CCCC1=Nc1ccc(Br)c(Cl)c1 [Compound 411] | 0.3 % by weight | 0.1 % by weight |  |  |  |
| CCCCN1CCCC1=Nc1ccc(Br)cc1Br [Compound 291] | 0.3 % by weight | 0.1 % by weight |  |  |  |
| C=CCN1CCCC1=Nc1ccc(Br)cc1CC [Compound 441] | 0.3 % by weight | 0.1 % by weight |  |  |  |
| C=CCN1CCCC1=Nc1ccc(F)c(Br)c1 [Compound 471] | 0.1 % by weight | 0.08 % by weight |  |  |  |
| Cc1cc(Cl)ccc1N=C1CCCN1C [Compound 141] |  |  | 0.3 % by weight | 0.1 % by weight |  |
